# In PubChem BioAssay AID1918947 (Molecular Pharmacology Branch, DTP, NCI, 2023):
# Several values for one entry are separate records, joined by “and”; a condition that tells them apart may be missing. Equal values may be shown once.
# Tested on: A498 complex spheroid viability
# Experiment: Anticancer human tumor A498 cell line growth inhibition;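 further: spheroids exposed to agents for seven days before readout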;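 on viability, T/C: 100% = DMSO vehicle-treated spheroids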
# Settings: for viability, T/C: stronger effect = lower value
# Method in brief: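 Complex spheroids of tumor cells with HUVEC and human MSCs, exposed to iadademstat combined with other agents. Each agent tested in half-log steps from near clinical Cmax (else 10 microM top), DMSO ≤0.25%.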
# [1] = curve of first compound, second compound 0.1 µM
# [2] = curve of first compound, second compound 0.316 µM
# [3] = curve of first compound, second compound 1 µM
# [4] = curve of first compound, second compound 3.16 µM
# [5] = curve of first compound, second compound 10 µM
# [6] = second compound 0.1 µM, first compound 0.00316 µM
# [7] = second compound 0.1 µM, first compound 0.01 µM
# [8] = second compound 0.1 µM, first compound 0.0316 µM
# [9] = second compound 0.1 µM, first compound 0.1 µM
# [10] = second compound 0.1 µM, first compound 0.316 µM
# [11] = second compound 0.1 µM, first compound 1 µM
# [12] = second compound 0.316 µM, first compound 0.00316 µM
# [13] = second compound 0.316 µM, first compound 0.01 µM
# [14] = second compound 0.316 µM, first compound 0.0316 µM
# [15] = second compound 0.316 µM, first compound 0.1 µM
# [16] = second compound 0.316 µM, first compound 0.316 µM
# [17] = second compound 0.316 µM, first compound 1 µM
# [18] = second compound 1 µM, first compound 0.00316 µM
# [19] = second compound 1 µM, first compound 0.01 µM
# [20] = second compound 1 µM, first compound 0.0316 µM
# [21] = second compound 1 µM, first compound 0.1 µM
# [22] = second compound 1 µM, first compound 0.316 µM
# [23] = second compound 1 µM, first compound 1 µM
# [24] = second compound 3.16 µM, first compound 0.00316 µM
# [25] = second compound 3.16 µM, first compound 0.01 µM
# [26] = second compound 3.16 µM, first compound 0.0316 µM
# [27] = second compound 3.16 µM, first compound 0.1 µM
# [28] = second compound 3.16 µM, first compound 0.316 µM
# [29] = second compound 3.16 µM, first compound 1 µM
# [30] = second compound 10 µM, first compound 0.00316 µM
# [31] = second compound 10 µM, first compound 0.01 µM
# [32] = second compound 10 µM, first compound 0.0316 µM
# [33] = second compound 10 µM, first compound 0.1 µM
# [34] = second compound 10 µM, first compound 0.316 µM
# [35] = second compound 10 µM, first compound 1 µM
# [36] = second compound 0.1 µM, first compound 3.16 µM
# [37] = second compound 0.1 µM, first compound 10 µM
# [38] = second compound 0.316 µM, first compound 3.16 µM
# [39] = second compound 0.316 µM, first compound 10 µM
# [40] = second compound 1 µM, first compound 3.16 µM
# [41] = second compound 1 µM, first compound 10 µM
# [42] = second compound 3.16 µM, first compound 3.16 µM
# [43] = second compound 3.16 µM, first compound 10 µM
# [44] = second compound 10 µM, first compound 3.16 µM
# [45] = second compound 10 µM, first compound 10 µM
smiles,measurement,setting,value
O=C(C=Cn1cnc(-c2cc(C(F)(F)F)cc(C(F)(F)F)c2)n1)NNc1cnccn1 + NC1CC1c1ccc(-c2cccc(O)c2)cc1,IC50,[1],11.8 nM
same,IC50,[2],9.73 nM
same,IC50,[3],9.22 nM
same,IC50,[4],6.36 nM
same,IC50,[5],7.24 nM
same,"viability, T/C",[6],69.8%
same,"viability, T/C",[7],50.3%
same,"viability, T/C",[8],40.5%
same,"viability, T/C",[9],29.3%
same,"viability, T/C",[10],25.2%
same,"viability, T/C",[11],19.3%
same,"viability, T/C",[12],72.2%
same,"viability, T/C",[13],47.7%
same,"viability, T/C",[14],37.5%
same,"viability, T/C",[15],28.8%
same,"viability, T/C",[16],25.8%
same,"viability, T/C",[17],20.1%
same,"viability, T/C",[18],70.9%
same,"viability, T/C",[19],46.9%
same,"viability, T/C",[20],37.1%
same,"viability, T/C",[21],28.4%
same,"viability, T/C",[22],27.8%
same,"viability, T/C",[23],20.7%
same,"viability, T/C",[24],61%
same,"viability, T/C",[25],41.9%
same,"viability, T/C",[26],34.8%
same,"viability, T/C",[27],26.8%
same,"viability, T/C",[28],27%
same,"viability, T/C",[29],22.3%
same,"viability, T/C",[30],61.3%
same,"viability, T/C",[31],43.8%
same,"viability, T/C",[32],36.5%
same,"viability, T/C",[33],31.8%
same,"viability, T/C",[34],24.1%
same,"viability, T/C",[35],21.6%
CC(C)c1c(-c2ccccc2)nc2c(C#N)c[nH]n2c1=O + NC1CC1c1ccc(-c2cccc(O)c2)cc1,IC50,[1],> 10000 nM
same,IC50,[2],> 10000 nM
same,IC50,[3],> 10000 nM
same,IC50,[4],> 10000 nM
same,IC50,[5],> 10000 nM
same,"viability, T/C",[8],98%
same,"viability, T/C",[9],113%
same,"viability, T/C",[10],106%
same,"viability, T/C",[11],102%
same,"viability, T/C",[36],104%
same,"viability, T/C",[37],108%
same,"viability, T/C",[14],104%
same,"viability, T/C",[15],101%
same,"viability, T/C",[16],101%
same,"viability, T/C",[17],107%
same,"viability, T/C",[38],99.1%
same,"viability, T/C",[39],97.4%
same,"viability, T/C",[20],93.4%
same,"viability, T/C",[21],101%
same,"viability, T/C",[22],95.6%
same,"viability, T/C",[23],99.5%
same,"viability, T/C",[40],89%
same,"viability, T/C",[41],98%
same,"viability, T/C",[26],97.4%
same,"viability, T/C",[27],94%
same,"viability, T/C",[28],97.5%
same,"viability, T/C",[29],94.7%
same,"viability, T/C",[42],94.9%
same,"viability, T/C",[43],98.5%
same,"viability, T/C",[32],86.7%
same,"viability, T/C",[33],92%
same,"viability, T/C",[34],91.3%
same,"viability, T/C",[35],97.4%
same,"viability, T/C",[44],96.1%
same,"viability, T/C",[45],94.9%
CC(C)CC(NC(=O)CNC(=O)c1cc(Cl)ccc1Cl)B1OC(=O)CC(CC(=O)O)(C(=O)O)O1 (stereo unspecified) + NC1CCC(NC2CC2c2ccccc2)CC1,IC50,[1],4.58 nM
same,IC50,[2],4.93 nM
same,IC50,[3],4.56 nM
same,IC50,[4],4.16 nM
same,IC50,[5],2.95 nM
same,"viability, T/C","second compound 0.1 µM, first compound 0.000316 µM",86.6%
same,"viability, T/C","second compound 0.1 µM, first compound 0.001 µM",91.6%
same,"viability, T/C",[6],64.4%
same,"viability, T/C",[7],18.1%
same,"viability, T/C",[8],4.94%
same,"viability, T/C",[9],3.27%
same,"viability, T/C","second compound 0.316 µM, first compound 0.000316 µM",94.3%
same,"viability, T/C","second compound 0.316 µM, first compound 0.001 µM",102%
same,"viability, T/C",[12],72%
same,"viability, T/C",[13],14.6%
same,"viability, T/C",[14],5.43%
same,"viability, T/C",[15],2.63%
same,"viability, T/C","second compound 1 µM, first compound 0.000316 µM",87.7%
same,"viability, T/C","second compound 1 µM, first compound 0.001 µM",96.5%
same,"viability, T/C",[18],65.5%
same,"viability, T/C",[19],15.4%
same,"viability, T/C",[20],3.18%
same,"viability, T/C",[21],1.44%
same,"viability, T/C","second compound 3.16 µM, first compound 0.000316 µM",84.3%
same,"viability, T/C","second compound 3.16 µM, first compound 0.001 µM",91.2%
same,"viability, T/C",[24],62.4%
same,"viability, T/C",[25],9.48%
same,"viability, T/C",[26],2.6%
same,"viability, T/C",[27],0.83%
same,"viability, T/C","second compound 10 µM, first compound 0.000316 µM",74.9%
same,"viability, T/C","second compound 10 µM, first compound 0.001 µM",83.3%
same,"viability, T/C",[30],47.5%
same,"viability, T/C",[31],7.21%
same,"viability, T/C",[32],1.59%
same,"viability, T/C",[33],0.69%
NC1CCC(NC2CC2c2ccccc2)CC1 (stereo unspecified),"viability, T/C",compound 0.1 µM,86.8% [middle of 25 runs]
same,"viability, T/C",compound 0.316 µM,85.2% and 90.6%
same,"viability, T/C",compound 1 µM,86% [middle of 25 runs]
same,"viability, T/C",compound 3.16 µM,84.7% [middle of 25 runs]
same,"viability, T/C",compound 10 µM,75.1% [middle of 23 runs]
same,IC50,"compound alone, run of 11/29/2021",> 10000 nM
COc1ccc([C@@H](O)c2cc(-c3ncnc4cc(N5CCOCC5)ccc34)c(F)cc2Cl)nn1 + NC1CC1c1ccc(-c2cccc(O)c2)cc1,IC50,[1],96.3 nM
same,IC50,[2],112 nM
same,IC50,[3],96.2 nM
same,IC50,[4],89 nM
same,IC50,[5],69.9 nM
same,"viability, T/C",[8],75%
same,"viability, T/C",[9],49.5%
same,"viability, T/C",[10],28.1%
same,"viability, T/C",[11],16.7%
same,"viability, T/C",[36],9.62%
same,"viability, T/C",[37],5.97%
same,"viability, T/C",[14],80.4%
same,"viability, T/C",[15],52.9%
same,"viability, T/C",[16],28.8%
same,"viability, T/C",[17],19.5%
same,"viability, T/C",[38],9.72%
same,"viability, T/C",[39],6.4%
same,"viability, T/C",[20],70.6%
same,"viability, T/C",[21],50.1%
same,"viability, T/C",[22],27.4%
same,"viability, T/C",[23],17.2%
same,"viability, T/C",[40],9.2%
same,"viability, T/C",[41],6.15%
same,"viability, T/C",[26],73.1%
same,"viability, T/C",[27],46.8%
same,"viability, T/C",[28],29.7%
same,"viability, T/C",[29],16.7%
same,"viability, T/C",[42],8.9%
same,"viability, T/C",[43],5.52%
same,"viability, T/C",[32],67.1%
same,"viability, T/C",[33],42.5%
same,"viability, T/C",[34],24.5%
same,"viability, T/C",[35],16.6%
same,"viability, T/C",[44],8.67%
same,"viability, T/C",[45],5.51%
O=C(C=Cc1cccc(S(=O)(=O)Nc2ccccc2)c1)NO + NC1CCC(NC2CC2c2ccccc2)CC1,IC50,[1],266 nM
same,IC50,[2],253 nM
same,IC50,[3],250 nM
same,IC50,[4],168 nM
same,IC50,[5],131 nM
same,"viability, T/C","second compound 0.1 µM, first compound 0.00949 µM",81.5%
same,"viability, T/C","second compound 0.1 µM, first compound 0.03 µM",82.3%
same,"viability, T/C","second compound 0.1 µM, first compound 0.0949 µM",67.1%
same,"viability, T/C","second compound 0.1 µM, first compound 0.3 µM",43.2%
same,"viability, T/C","second compound 0.1 µM, first compound 0.949 µM",33.6%
same,"viability, T/C","second compound 0.1 µM, first compound 3 µM",12.9%
same,"viability, T/C","second compound 0.316 µM, first compound 0.00949 µM",88%
same,"viability, T/C","second compound 0.316 µM, first compound 0.03 µM",87.1%
same,"viability, T/C","second compound 0.316 µM, first compound 0.0949 µM",69.3%
same,"viability, T/C","second compound 0.316 µM, first compound 0.3 µM",41.2%
same,"viability, T/C","second compound 0.316 µM, first compound 0.949 µM",33.1%
same,"viability, T/C","second compound 0.316 µM, first compound 3 µM",11.7%
same,"viability, T/C","second compound 1 µM, first compound 0.00949 µM",79.1%
same,"viability, T/C","second compound 1 µM, first compound 0.03 µM",78%
same,"viability, T/C","second compound 1 µM, first compound 0.0949 µM",63.1%
same,"viability, T/C","second compound 1 µM, first compound 0.3 µM",46.8%
same,"viability, T/C","second compound 1 µM, first compound 0.949 µM",28.1%
same,"viability, T/C","second compound 1 µM, first compound 3 µM",10.4%
same,"viability, T/C","second compound 3.16 µM, first compound 0.00949 µM",79.9%
same,"viability, T/C","second compound 3.16 µM, first compound 0.03 µM",72.7%
same,"viability, T/C","second compound 3.16 µM, first compound 0.0949 µM",60.4%
same,"viability, T/C","second compound 3.16 µM, first compound 0.3 µM",38.8%
same,"viability, T/C","second compound 3.16 µM, first compound 0.949 µM",23.2%
same,"viability, T/C","second compound 3.16 µM, first compound 3 µM",8.14%
same,"viability, T/C","second compound 10 µM, first compound 0.00949 µM",70.4%
same,"viability, T/C","second compound 10 µM, first compound 0.03 µM",64.6%
same,"viability, T/C","second compound 10 µM, first compound 0.0949 µM",56.5%
same,"viability, T/C","second compound 10 µM, first compound 0.3 µM",36%
same,"viability, T/C","second compound 10 µM, first compound 0.949 µM",22.9%
same,"viability, T/C","second compound 10 µM, first compound 3 µM",7.67%
